According to paper PMC8689140 (Frontiers in Pharmacology, 2021):

Columns and labels:
[1] = set-up: method as in Yang et al., 2021; conditions: SD rats, oral administration at an equimolar dose, previous study ref Yang et al., 2021; cited from earlier work
VMAT2 [2] = test system: VMAT2; set-up: method as in Yang et al., 2021; conditions: previous study ref Yang et al., 2021; read-out: affinity for VMAT2 IC50; cited from earlier work
rhCYP CYP2D6 = test system: T1, rhCYP CYP2D6; test: P450 phenotyping, rhCYP isozymes, CYP2D6; assay type: in vitro ADME, human; conditions: rhCYP2D6 probe substrate, 1 µM
T1 construct: purchased Corning Co., Ltd (Shanghai, China)
Description: (§1) According to the result of metabolite identification, three metabolites were selected as the targets for metabolic phenotyping. Seven CYP isozymes (CYP1A2, CYP2B6, CYP2C8, CYP2C9, CYP2C19, CYP2D6, and CYP3A4) were investigated using two kinds of methods: chemical inhibitors in human liver microsomes (HLMs) method (Experiment 1) and rhCYP isozymes method (Experiment 2).
Experiment 2: Each rhCYP isozyme was thawed and diluted as above method. As positive controls, the probe substrates of each P450 isozyme were tested under the same conditions. […] Vx ([…]) is the production rate of metabolites for each rhCYP isozyme.

CYP2D6 = test system: T2, CYP2D6; test: P450 phenotyping, chemical inhibitors in HLMs, CYP2D6; assay type: in vitro ADME, human; conditions: CYP2D6 probe substrate, 5 µM, specific inhibitor
T2 construct: tissue Corning Co., Ltd (Shanghai, China); host or cells: human liver microsomes
Description: as §1
Experiment 1: HLMs were thawed on ice and diluted in100 mM sodium phosphate buffer (pH 7.4) containing 3 mM magnesium chloride. […] After 10 min of preincubation at 37°C, the reactions were initiated by adding 20 µL of NADPH (10 mM) and then incubated at 37 °C in a shaking water bath for 30 min. The samples were prepared in triplicates. The reactions were terminated by adding 600 µL of ice-cold acetonitrile and stored at −20°C until analysis. Control samples without NADPH and 0-time point samples were included. As positive controls, the probe substrates of each P450 isozyme under the same conditions were tested, and specific inhibitors was added. Next, the samples were centrifuged at 13,000 rpm for 10 min, the supernatants were determined by LC–MS/MS.

[3] = set-up: method as in Skor et al., 2017; Stahl, 2018; conditions: Figure 1A ref Skor et al., 2017, Stahl, 2018, cited from earlier work; for Plasma Leval (DTBZ): share of HTBZ isomers after deutetrabenazine; for Plasma Leval (TBZ): share of HTBZ isomers after tetrabenazine
VMAT2 [4] = test system: VMAT2; set-up: method as in Skor et al., 2017; Stahl, 2018; conditions: Figure 1A ref Skor et al., 2017; Stahl, 2018; cited from earlier work
[5] = Metabolite identification in rat liver microsomes; assay type: in vitro ADME; conditions: NADPH, 60 min
Description: (§2) Human, rat and dog liver microsomes were carefully thawed on ice prior to the experiment and diluted to 1 mg/ml in100 mM sodium phosphate buffer (pH 7.4) containing 10 mM magnesium chloride. […] After 3 min of preincubation at 37°C, the reactions were initiated by adding 20 µL of NADPH (20 mM) and then incubated at 37°C in a shaking water bath for 60 min. All samples were prepared in duplicates. The reactions were terminated by adding 600 µl of ice-cold acetonitrile and stored at −20°C until analysis. Control samples without NADPH and 0-time point samples were included. As a positive control, testosterone (10 µM) which was metabolized to produce the hydroxylation metabolite was used as a substrate to confirm the activity of the incubation system. Next, the samples were centrifuged at 13,000 rpm for 10 min, the supernatant was separated and evaporated to dryness under a nitrogen stream. The residue was resuspended in 100 μl of acetonitrile, after centrifugation, the supernatants were analyzed by UPLC–UV-HRMS.
(§3) The analysis was performed on Acquity UPLC system coupled with a diode array detector (Waters Corporation, United States) and Q Exactive™ Orbitrap HRMS (Thermo Electron Corporation, United States). […]
(§4) HRMS were operated at positive ion mode using a heating electrospray ionization source (HESI). […] The metabolites were detected by full MS/dd-MS^2 analysis from m/z 100 to m/z 1,000. […]

[6] = Metabolite identification in dog liver microsomes; assay type: in vitro ADME
Description: as §2, §3, §4

[7] = Metabolite identification in liver microsomes from humans, dogs and rats (stated across species); assay type: in vitro ADME, human, dog, rat; conditions: range or bound across the three species
Description: as §2, §3, §4

[8] = Metabolite identification in human liver microsomes; assay type: in vitro ADME
Description: as §2, §3, §4

[9] = Metabolite identification in dog plasma after oral dose; assay type: in vivo; conditions: pooled dog plasma after single oral dose of (+)-13e at 3 μmol/kg
Description: (§5) Male beagle dogs were randomly divided into four groups. […] The dogs were fasted for 12 h before treatment and 4 h after treatment, but they were granted free access to water. Blood was collected from the vein before administration and 0.083 (only for injection groups), 0.25, 0.5, 1, 2, 3, 4, 6, 8, 12 and 24 h, and placed it in heparinized tubes, and centrifuged it at 8,000 rpm for 10 min at 4°C to separate the plasma, which we stored at −20 °C until analysis. The plasma samples were pretreated by protein precipitation with acetonitrile and quantitated by the validated LC-MS/MS (Shimadzu Exion-Triple Quad 4500) method.
Then, four volumes of acetonitrile (containing 0.1% formic acid) were added into the pooled plasma samples to precipitate the proteins. After vortex-mixing and centrifugation, the supernatants were dried under a nitrogen stream. Then, the residues were resuspended in 100 μl of acetonitrile/water (1:1, v/v) with 0.1% formic acid. After centrifugation, the supernatants were analyzed by UPLC–UV-HRMS for metabolite identification.
The analysis was performed on Acquity UPLC system coupled with a diode array detector (Waters Corporation, United States) and Q Exactive™ Orbitrap HRMS (Thermo Electron Corporation, United States). […] The mobile phase was composed water containing 0.1% formic acid (A) and acetonitrile containing 0.1% formic acid (B). The flow rate was 0.40 ml/min. The elution conditions were the following linear gradient for metabolite identify in HLMs: 0–1 min: 95% A, 1–2 min: 80% A, 2–5 min: 80% A, 5–8 min: 70% A, 8–12 min: 30% A, 12–15 min: 5% A, 15–16 min: 95% A, and 16–18 min: 95% A. The elution conditions were the following for metabolite identify in dog plasma: 0–1 min: 95% A, 1–30 min: 70% A, 30–32 min: 30% A, 32–33 min: 5% A, 33–35 min: 95% A, and 35–40 min: 95% A.
HRMS were operated at positive ion mode using a heating electrospray ionization source (HESI). The optimized operating parameters were set as follows: sheath gas (nitrogen) flow rate of 35 psi, aux gas (nitrogen) flow rate of 10 psi, HESI and capillary temperature of 350°C, and spray voltage of 3.5 kV. The metabolites were detected by full MS/dd-MS^2 analysis from m/z 100 to m/z 1,000. The resolution of the first-class scan and second-class scan was 70 000 and 17 500, respectively. The collision energy for collision induced dissociation (NCE) was set to 20, 40 and 60 eV. The loop count was set to five and the dynamic exclusion duration to 10 s. […] Thermo Compound Discover software was used to identify expected and unknown metabolites, and we finally proposed (+)-13e metabolic pathways based on the deduced metabolites and relevant drug biotransformation knowledge.

rat VMAT2 = target: T3, rat VMAT2 (Rattus norvegicus, UniProt Q01827); test: [3H]DA uptake assay in rat striatal synaptosomes; assay type: biochemical; conditions: [3H]DA uptake, rat striatal synaptosomes
T3 construct: in vitro [^3H]DA uptake assay in rat striatal synaptosomes; from tissue; host or cells: rat striatal synaptosomes / vesicular suspension
Description: [^3H]DA (dihydroxyphenylethyethylamine, 3,4-[ring-2,5,6-^3H]; specific activity, 28.0 Ci/mmol) was purchased from Perkin Elmer. […] After drying, the filter plate was sealed with unifilter-96 back sealing tape and added 50 μl of microscint-20 (Perkin Elmer), then sealed the top of the filter plate with TopSeal-A. The radioactivity was measured by a TopCount scintillation counter. GraphPad Prism 5.0 was used to analyze data.

[10] = test system: locomotor activity of rats; test: Dose-dependent effects on locomotor activity in rats; assay type: in vivo, rat; conditions: SD rats, single oral gavage 5.2 μmol/kg, 0.5-[…] after dosing
Description: Before administration, animals were transported to the test room and allowed to acclimate for at least 1 h. Immediately after drug administration, rats were placed into activity chambers to assess their basal locomotor activity using the TopScan monitoring system. The total travel distance was recorded from 0.5 to 1.5 h after administration in intervals of 10 min.

[11] = PK in dogs after single oral or intravenous dose; assay type: in vivo, dog; conditions: dog
Description: as §5
The system consisted of an Exion UHPLC system (Shimadzu, Japan) and a Triple Quad 4500 mass spectrometer (AB Sciex, United States) with an electrospray ionization source. Multiple reaction monitoring in the positive ionization mode was applied to measure analytes. Chromatographic separation was performed on a Acquity BEH C18 column (50 × 2.1 mm i. d., 1.7 μm, Waters, United States). The mobile phase was composed of 0.1% FA in water (A) and 0.1% FA in acetonitrile (B), and the flow rate was 0.4 ml/min. The elution conditions were the following linear gradient: 0–0.4 min: 90% A, 0.4–0.6 min: 60% A, 0.6–1.2 min: 10% A, 1.2–2.2 min: 10% A, 2.2–2.3 min: 90% A, 2.3–3.0 min: 90% A. The optimized parameters were as follows: the spray voltage 5.5 kV, source temperature 550 °C, pressure of source gas 1 and gas 2: 55psi, pressure of curtain gas: 30psi, and the DP, EP and CE voltage was 30,6 and 40 eV, respectively.

[12] = no peak in UV, abundance by mass spectrometry

T3 sequence (Q01827 whole entry): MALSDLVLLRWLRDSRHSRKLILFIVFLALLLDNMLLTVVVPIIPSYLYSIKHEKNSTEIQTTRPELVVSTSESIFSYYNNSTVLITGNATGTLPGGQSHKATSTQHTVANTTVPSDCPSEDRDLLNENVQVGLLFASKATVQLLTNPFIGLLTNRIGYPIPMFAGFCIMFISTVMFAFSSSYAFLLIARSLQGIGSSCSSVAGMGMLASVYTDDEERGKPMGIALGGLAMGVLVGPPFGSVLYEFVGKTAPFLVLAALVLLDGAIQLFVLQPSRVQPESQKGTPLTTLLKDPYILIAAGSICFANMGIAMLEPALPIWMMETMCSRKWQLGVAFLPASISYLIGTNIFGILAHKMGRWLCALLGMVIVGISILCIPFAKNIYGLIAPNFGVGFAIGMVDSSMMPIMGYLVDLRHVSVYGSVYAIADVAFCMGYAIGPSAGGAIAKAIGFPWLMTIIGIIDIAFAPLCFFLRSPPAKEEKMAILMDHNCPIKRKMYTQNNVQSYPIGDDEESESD

SMILES: COc1cc2c(cc1OCC(F)(F)F)CCN1CC(CC(C)C)C(O)CC21 (racemic) [13e, 3-isobutyl-10-methoxy-9-(2,2,2-trifluoroethoxy)-1,3,4,6,7,11b-hexahydro-2H-pyrido [2,1-a]isoquinolin-2-ol]
- concentration in the brain higher than that of HTBZ [1]: 2 fold
- IC50 (VMAT2 [2]): 5.13 nM

SMILES: COc1ccc2c(c1)[C@]13CCCC[C@@H]1[C@H](C2)N(C)CC3 [Dextromethorphan]
- CL int in rhCYP (rhCYP CYP2D6): 13.1 µL/min/pmol
- %Inhibation in HLM (CYP2D6): 90.7%

SMILES: COc1cc2c(cc1OC)[C@H]1C[C@@H](O)[C@H](CC(C)C)CN1CC2 [HTBZ, (+)-α-dihydrotetrabenazine]
- Plasma Leval (DTBZ) [3]: 1.7%
- Plasma Leval (TBZ) [3]: 1.8%
- VMAT2 affinity (VMAT2 [4]): High

SMILES: CC(C)CC1CN2CCc3cc(OCC(F)(F)F)c(O)cc3C2CC1O (centres unmarked) [M373]
- Relative abundance, UV area % Rat [5]: 2.6%
- Relative abundance Dog (*detected by mass spectrometry) [6, 12]: 0.46^* %
- relative abundance in liver microsomes from humans, dogs, and rats [7]: less than 3.2%
- Relative abundance Human (*detected by mass spectrometry) [8, 12]: 0.69^* %

SMILES: COc1cc2c(cc1OCC(F)(F)F)CCN1CC(CC(C)(C)O)C(O)CC21 (centres unmarked) [M403-2]
- Relative abundance, UV area % Rat [5]: 8.78%
- Relative abundance UV area % in dog plasma [9]: 9.69%
- Relative abundance, UV area % Dog ([6]; NADPH, 60 min, UV area): 10.01%
- Relative abundance, UV area % Human ([8]; NADPH, 60 min, UV area): 12.11%

SMILES: CC(C)C[C@@H]1CN2CCc3cc(OCC(F)(F)F)c(OC4OC(C(=O)O)C(O)C(O)C4O)cc3[C@H]2C[C@H]1O (some centres unmarked) [M549]
- Relative abundance UV area % in dog plasma [9]: 7.47%

SMILES: COc1cc2c(cc1OCC(F)(F)F)CCN1CC(CC(C)C)C(OC3OC(C(=O)O)C(O)C(O)C3O)CC21 (centres unmarked) [M563]
- Relative abundance UV area % in dog plasma [9]: 9.92%

SMILES: CC(C)(O)C[C@@H]1CN2CCc3cc(OCC(F)(F)F)c(OC4OC(C(=O)O)C(O)C(O)C4O)cc3[C@H]2C[C@H]1O (some centres unmarked) [M565]
- Relative abundance UV area % in dog plasma [9]: 10.2%

SMILES: COc1cc2c(cc1OCC(F)(F)F)CCN1C[C@@H](CC(C)(C)OC3OC(C(=O)O)C(O)C(O)C3O)[C@H](O)C[C@H]21 (some centres unmarked) [M579-1]
- Relative abundance UV area % in dog plasma [9]: 3.43%

SMILES: COc1cc2c(cc1OC)C1CC(=O)C(CC(C)C)CN1CC2 (centres unmarked) [TBZ, tetrabenazine, reference compound]
- IC90 (rat VMAT2): 96.9 nM

SMILES: COc1cc2c(cc1OC)[C@H]1C[C@@H](OC(=O)[C@@H](N)C(C)C)[C@H](CC(C)C)CN1CC2 [VBZ, Valbenazine ditosylate, reference compound]
- reduction rate (RR) of locomotion [10]: 97.9%
- V, V/F ([11]; single intravenous dose 0.6 μmol/kg): 2.8 ± 0.5 L/kg
- clearance ([11]; single intravenous dose 0.6 μmol/kg, read-out: Cl, Cl/F (converted)): 6 mL/min/kg
- V, V/F ([11]; single oral dose 3 μmol/kg): 3.5 ± 0.8 L/kg
- bioavailability ([11]; male, beagle, plasma, dogs, oral 3 μmol/kg vs intravenous 0.6 μmol/kg, read-out: absolute oral bioavailability): 74.1%
- CL/F ([11]; male, beagle, plasma, 3 umol/kg, single oral dose 3 μmol/kg): 8 mL/min/kg

SMILES: COc1cc2c(cc1OC)[C@H]1C[C@H](O)[C@H](CC(C)C)CN1CC2 [[+]-β-HTBZ]
- Plasma Leval (DTBZ) [3]: 43.8%
- Plasma Leval (TBZ) [3]: 37.2%
- VMAT2 affinity (VMAT2 [4]): High

SMILES: COc1cc2c(cc1OC)[C@@H]1C[C@H](O)[C@@H](CC(C)C)CN1CC2 [[-]-α-HTBZ]
- Plasma Leval (DTBZ) [3]: 48.3%
- Plasma Leval (TBZ) [3]: 55.6%
- VMAT2 affinity (VMAT2 [4]): Low

SMILES: COc1cc2c(cc1OC)[C@@H]1C[C@@H](O)[C@@H](CC(C)C)CN1CC2 [[-]-β-HTBZ]
- Plasma Leval (DTBZ) [3]: 6.2%
- Plasma Leval (TBZ) [3]: 5.4%
- VMAT2 affinity (VMAT2 [4]): Low
